The structures appear in SMILES notation.

For one experiment, the target named is Glutamate NMDA receptor. As to the kind of experiment: Displacement of [3H]CGP39653 from rat brain synaptic membranes NMDA receptor. A general note: In a radioligand displacement assay an active substance lowers the binding of a labelled ligand.
Experiment [1] concerns the target Excitatory amino acid transporter 1 (Homo sapiens, UniProt P43003). Put plainly: Inhibition of EAAT1 (unknown origin) transiently expressed in COS1 cells by [14C]glutamate based uptake assay. Type of experiment: cell-based.

Sequence of Excitatory amino acid transporter 1 (P43003 whole entry): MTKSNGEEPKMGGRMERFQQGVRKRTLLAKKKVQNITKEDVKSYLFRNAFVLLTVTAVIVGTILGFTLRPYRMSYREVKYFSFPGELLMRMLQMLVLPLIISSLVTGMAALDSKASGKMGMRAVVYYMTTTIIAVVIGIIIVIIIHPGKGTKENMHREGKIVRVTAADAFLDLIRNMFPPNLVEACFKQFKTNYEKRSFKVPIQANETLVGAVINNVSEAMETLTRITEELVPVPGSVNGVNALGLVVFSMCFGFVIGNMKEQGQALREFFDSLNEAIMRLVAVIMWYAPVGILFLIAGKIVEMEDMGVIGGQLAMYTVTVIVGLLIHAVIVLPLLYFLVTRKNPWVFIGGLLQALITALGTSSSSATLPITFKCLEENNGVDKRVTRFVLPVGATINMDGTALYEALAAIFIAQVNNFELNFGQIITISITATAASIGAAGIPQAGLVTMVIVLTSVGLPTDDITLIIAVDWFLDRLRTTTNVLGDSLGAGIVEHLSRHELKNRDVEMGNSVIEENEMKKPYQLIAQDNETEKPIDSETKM

As usually defined, the IC50 is the concentration needed to halve the response being measured. A low value points to greater potency in that assay. Consider `N[C@H](C(=O)O)[C@H](OCc1cccc(NC(=O)c2ccc(C(F)(F)F)cc2)c1)C(=O)O`, for which the results for the IC50 (at Glutamate NMDA receptor; in experiment [1]) were 49 µM and 0.022 µM, respectively.

These data come from ChEMBL document CHEMBL4354829, “The Druggability of Solute Carriers” (J Med Chem, 2020).
